The text below walks through data of ChEMBL document CHEMBL3868607, “Development of a novel series of non-natural triaryl agonists and antagonists of the Pseudomonas aeruginosa LasR quorum sensing receptor” (Bioorg Med Chem, 2017).

SMILES strings stand for the structures. Activity calls are given as the source filed them. No cut-off for these calls is given here. Some results are limits rather than exact numbers.

Assay [1] in a line: Agonist activity at Pseudomonas aeruginosa GFP-fused LasR expressed in Escherichia coli BL21(DE3) after 4 to 6 hrs by fluorescence assay.
Assay [2] has as its system Pseudomonas aeruginosa. Put plainly: Agonist activity at Pseudomonas aeruginosa GFP-fused LasR expressed in Escherichia coli BL21(DE3) at 50 uM after 4 to 6 hrs by fluorescence assay relative to 3-oxo-C12 HSL.
Assay [3] is described as follows: Antagonist activity at Pseudomonas aeruginosa GFP-fused LasR expressed in Escherichia coli BL21(DE3) after 4 to 6 hrs by fluorescence assay.
Assay [4] relates to Pseudomonas aeruginosa. Put plainly: Antagonist activity at Pseudomonas aeruginosa GFP-fused LasR expressed in Escherichia coli BL21(DE3) at 50 uM after 4 to 6 hrs by fluorescence assay relative to (S)-2-(4-bromophenyl)-N-(2-oxotetrahydrofuran-3-yl) acetamide.
Assay [5] concerns Pseudomonas aeruginosa. Put plainly: Irreversible inhibition of Pseudomonas aeruginosa GFP-fused LasR expressed in Escherichia coli BL21(DE3) at 50 uM after 4 to 6 hrs by fluorescence assay.
Assay [6] is described as follows: Antagonist activity at Pseudomonas aeruginosa LasR expressed in Escherichia coli DH5alpha after 4 to 6 hrs by beta-galactosidase reporter gene assay.

Consider `O=C(Cc1cc(Br)cc(Br)c1OC(=O)c1ccccc1Cl)Nc1cccc([N+](=O)[O-])c1`, for which, in assay [1], the EC50 (in general, the concentration at which the effect is half-maximal) was less than 50000 nM. In addition, the Emax (as a rule, the size of the effect at its maximum, as opposed to the concentration needed) with Pseudomonas aeruginosa [2] turned out to be 0%.
The matching figures for `O=C(Cc1cc(Br)cc(Br)c1OC(=O)c1ccc(F)cc1)Nc1ccccc1[N+](=O)[O-]`: less than 50000 nM and 39%.
`O=C(Cc1cc(Br)cc(Br)c1OC(=O)c1ccccc1Cl)Nc1ccncn1` yielded an EC50 in assay [1] of 601 nM. The molecule further registered an Emax in the assay with Pseudomonas aeruginosa [2] of 92%. Further, the IC50 (usually the midpoint of a concentration-inhibition curve) in assay [3] was greater than 100000 nM. This molecule gave an Imax with Pseudomonas aeruginosa [4] of 0%.
Regarding `O=C(Cc1cc(Br)cc(Br)c1OC(=O)c1ccccc1F)Nc1ccccc1[N+](=O)[O-]`, the EC50 in assay [1] came out at 1290 nM. The molecule also gave an Emax in the assay with Pseudomonas aeruginosa [2] of 76%.
As to `O=C(Cc1cc(Br)cc(Br)c1OC(=O)c1ccccc1Cl)Nc1ccncc1[N+](=O)[O-]`, in assay [1], it took 446 nM to reach a half-maximal effect (EC50). Also, the Emax in the assay on Pseudomonas aeruginosa [2] worked out at 112%.
Molecule `O=C(Cc1cc(Br)cc(Br)c1OC(=O)c1ccccc1[N+](=O)[O-])Nc1ccccc1[N+](=O)[O-]` displayed an EC50 in assay [1] of 489 nM. Further, the Emax in the assay on Pseudomonas aeruginosa [2] stood at 37%.
In the case of `O=C(Cc1cc(Br)cc(Br)c1OC(=O)c1cccc(Cl)c1)Nc1ccccc1[N+](=O)[O-]`, the EC50 in assay [1] was less than 50000 nM. This molecule displayed an Emax with Pseudomonas aeruginosa [2] of 0%.
Regarding `O=C(NCc1cc(Br)cc(Br)c1OC(=O)c1ccccc1Cl)c1ccncn1`, in assay [1], the midpoint of the response, the EC50, lay at 1630 nM. In addition, the Emax in the assay on Pseudomonas aeruginosa [2] turned out to be 90%. This molecule also showed an IC50 in assay [3] greater than 100000 nM. Moreover, the Imax with Pseudomonas aeruginosa [4] amounted to 0%.
`O=C(Oc1c(Br)cc(Br)cc1CNC(=O)c1cccc(F)c1F)c1ccccc1Cl` yielded an EC50 in assay [1] greater than 50000 nM. The Emax with Pseudomonas aeruginosa [2] was found to be 0%. The IC50 in assay [3] was 64500 nM. The molecule also gave an Imax with Pseudomonas aeruginosa [4] of 80%.
As for `O=C(Cc1cc(Br)cc(Br)c1OC(=O)c1ccccc1Cl)Nc1ccccc1[N+](=O)[O-]`, in assay [1], the EC50 came out at 372 nM. In the assay on Pseudomonas aeruginosa [2], the Emax came out at 105%.
For the molecule `O=C(Cc1cc(Br)cc(Br)c1OC(=O)c1ccc(Br)cc1)Nc1ccccc1[N+](=O)[O-]`, the EC50 in assay [1] is less than 50000 nM. Moreover, in the assay with Pseudomonas aeruginosa [2], the Emax stood at 35%.
Consider `O=C(Cc1cc(Br)cc(Br)c1OC(=O)c1ccc(F)cc1Br)Nc1ccccc1[N+](=O)[O-]`, for which the midpoint of the response in assay [1], the EC50, lay at 436 nM. For the same molecule, in the assay on Pseudomonas aeruginosa [2], the Emax is 64%.
In turn, `O=C(Cc1cc(Br)cc(Br)c1OC(=O)c1ccccc1Cl)Nc1ccc([N+](=O)[O-])cc1` gave an EC50 in assay [1] of less than 50000 nM. In the assay with Pseudomonas aeruginosa [2], this molecule returned an Emax of 0%.
The matching figures for `O=C(Cc1cc(Br)cc(Br)c1OC(=O)c1ccc(Cl)cc1)Nc1ccccc1[N+](=O)[O-]`: less than 50000 nM and 0%.
`O=C(Cc1cc(Br)cc(Br)c1OC(=O)c1ccccc1Cl)Nc1cc(F)c(F)cc1[N+](=O)[O-]` returned an EC50 in assay [1] of 335 nM. The molecule also yielded an Emax in the assay with Pseudomonas aeruginosa [2] of 89%.
`Cc1cccc(C(=O)Oc2c(Br)cc(Br)cc2CC(=O)Nc2ccccc2[N+](=O)[O-])c1` returned an EC50 in assay [1] of less than 50000 nM. Moreover, the Emax in the assay with Pseudomonas aeruginosa [2] came out at 24%.
In assay [1], `CCCCCCCCCC(=O)CC(=O)N[C@H]1CCOC1=O` showed an EC50 of 64700 to 72900 nM.
In turn, `O=C(Cc1cc(Br)cc(Br)c1OC(=O)c1ccccc1Br)Nc1ccccc1[N+](=O)[O-]` registered an EC50 in assay [1] of 271 nM. In addition, the Emax with Pseudomonas aeruginosa [2] was determined as 82%.
On to `O=C(Cc1cc(Br)cc(Br)c1OC(=O)c1c(Cl)cccc1Cl)Nc1ccccc1[N+](=O)[O-]`, for which, in assay [1], a half-maximal effect (EC50) was put at 313 nM. In the assay on Pseudomonas aeruginosa [2], this molecule came in with an Emax of 95%.
For `O=C(NCc1cc(Br)cc(Br)c1OC(=O)c1ccccc1Cl)c1cccnc1`, the EC50 in assay [1] was found to be 0.488 nM. This molecule came in with an Emax with Pseudomonas aeruginosa [2] of 31%. The same molecule had an IC50 in assay [3] greater than 100000 nM. In addition, the Imax in the assay on Pseudomonas aeruginosa [4] came out at 0%.
`O=C(Cc1cc(Br)cc(Br)c1OCc1c(Cl)cccc1Cl)Nc1ccccc1[N+](=O)[O-]` gave a half-maximal effective concentration (EC50) in assay [1] of 161 nM. This molecule also returned an Emax in the assay with Pseudomonas aeruginosa [2] of 56%.
In assay [1], `Cc1ccc(C(=O)Oc2c(Br)cc(Br)cc2CC(=O)Nc2ccccc2[N+](=O)[O-])cc1` yielded an EC50 of less than 50000 nM. Also, the Emax in the assay with Pseudomonas aeruginosa [2] worked out at 33%.
In the case of `O=C(Cc1cc(Br)cc(Br)c1OC(=O)c1ccccc1Cl)Nc1ccccn1`, the EC50 in assay [1] is less than 50000 nM. Also, in the assay on Pseudomonas aeruginosa [2], the Emax was 0%. In assay [3], this molecule had an IC50 of 42000 nM. Also, in the assay on Pseudomonas aeruginosa [4], the Imax was found to be 122%.
Regarding `COc1ccccc1C(=O)Oc1c(Br)cc(Br)cc1CC(=O)Nc1ccccc1[N+](=O)[O-]`, in assay [1], the EC50 worked out at 246 nM. This molecule returned an Emax with Pseudomonas aeruginosa [2] of 45%.
`O=C(NCc1cc(Br)cc(Br)c1OC(=O)c1ccccc1Cl)c1ccccn1` came in with an EC50 in assay [1] greater than 50000 nM. The molecule also displayed an Emax with Pseudomonas aeruginosa [2] of 0%. Also, in assay [3], the IC50 came out at 79300 nM. In the assay with Pseudomonas aeruginosa [4], this molecule showed an Imax of 105%.
Consider `O=C(Cc1cc(Br)cc(Br)c1OC(=O)CCCN1C(=O)C=CC1=O)N[C@H]1CCOC1=O`, for which the IC50 in assay [3] was greater than 100000 nM. In the assay on Pseudomonas aeruginosa [4], this molecule registered an Imax of 109%. Besides, the inhibition entry in the assay on Pseudomonas aeruginosa [5] is “Active”.
`Cc1ccccc1C(=O)Oc1c(Br)cc(Br)cc1CC(=O)Nc1ccccc1[N+](=O)[O-]` returned a concentration giving a half-maximal response (EC50) in assay [1] of 757 nM. In addition, in the assay with Pseudomonas aeruginosa [2], the Emax stood at 85%.
`O=C(Cc1ccc(Br)cc1)N[C@H]1CCOC1=O`: 26300 nM corresponded to half-maximal inhibition in assay [6] (IC50).
Molecule `O=C(CCCN1C(=O)C=CC1=O)Oc1c(Br)cc(Br)cc1CNC(=O)c1ccccn1` gave an IC50 in assay [3] of 76800 nM. In the assay with Pseudomonas aeruginosa [4], the Imax was 116%. For the same molecule, the inhibition entry in the assay with Pseudomonas aeruginosa [5] was “Active”.
In assay [1], `O=C(Cc1cc(Br)cc(Br)c1OC(=O)c1ccccc1)Nc1ccccc1[N+](=O)[O-]` had an EC50 of less than 50000 nM. Moreover, the maximal effect (Emax) with Pseudomonas aeruginosa [2] was 0%.
With `O=C(Cc1cc(Br)cc(Br)c1OC(=O)c1ccccc1Cl)Nc1cccc(F)c1F`, a half-maximal response in assay [1] (EC50) required 45.6 nM. The molecule also came in with an Emax in the assay on Pseudomonas aeruginosa [2] of 116%. For the same molecule, the IC50 in assay [3] was greater than 100000 nM. Besides, the Imax in the assay with Pseudomonas aeruginosa [4] turned out to be 0%.
For `O=C(Cc1cc(Br)cc(Br)c1OC(=O)c1cccc(Br)c1)Nc1ccccc1[N+](=O)[O-]`, the EC50 in assay [1] was less than 50000 nM. For the same molecule, the Emax in the assay with Pseudomonas aeruginosa [2] worked out at 44%.
The matching figures for `O=C(Cc1cc(Br)cc(Br)c1OC(=O)c1ccccc1I)Nc1ccccc1[N+](=O)[O-]`: 1580 nM and 50%.
For `O=C(Cc1cc(Br)cc(Br)c1OC(=O)CCN1C(=O)C=CC1=O)N[C@H]1CCOC1=O`, the IC50 in assay [3] stood at 23800 nM. The Imax in the assay on Pseudomonas aeruginosa [4] came out at 115%. Besides, the inhibition entry in the assay with Pseudomonas aeruginosa [5] was “Active”.
On to `O=C(Cc1cc(Br)cc(Br)c1OC(=O)c1ccccc1Cl)N[C@H]1CCOC1=O`, for which the EC50 in assay [1] was found to be 0.896 nM. In the assay with Pseudomonas aeruginosa [2], this molecule showed an Emax of 105%.
